Values after ≈ are worked out from the molar mass of the structure shown.
Test: water solubility by ultraviolet (UV) spectrophotometry
Assay type: physicochemical
Details: at 25 °C, free pesticide, read-out: intrinsic solubility
Text: Figure 1: Diagram of a solubility study using ultraviolet (UV) spectrophotometry of Bendiocarb as the concentration of cyclodextrin increases. Figure 2: Graph of differential scanning thermogravimetry (DST) of Bifenthrin alone, cyclodextrin (CD) alone, physical mixture of the two, and inclusion complex formed (encapsulated). Figure 3: Curves of differential thermal analysis (DTA) and thermal gravimetric analysis (TGA) of Tetramethrin alone, cyclodextrin (CD) alone, physical mixture of the two, and different inclusion complexes formed according to methods 1 or 2 and with the indicated stechiometries 1:1 or 2:1. Figure 4: Spectra of Nuclear Magnetic Resonance (1 H NMR) of Acetamiprid alone (a), cyclodextrin (CD) alone (b) and formed inclusion complex (c). Figure 5: Scanning electron photographs (SEM) of the structural change of Tebuconazole once the inclusion complex with cyclodextrin is formed. Figure 6: X-ray diffractograms (XRD) of Imidacloprid alone, cyclodextrin (CD) alone, physical mixture of both and inclusion complex formed (encapsulation). Figure 7: Diagram of the three-dimensional structures of the Acetamiprid-cyclodextrin complex by formation of a single crystal. Figure 8: Structural modelling by means of the program MACROMODEL of the Acetamiprid-cyclodextrin dimer. Figure 9: Performance of the Bendiocarb microencapsulation reaction (DSC). […]

In the case of `CNC(=O)Oc1cccc2c1OC(C)(C)O2` [Bendiocarb], the solubility is reported as 600 µM (≈ 134 µg/mL).

From EP2848122A1, “NEW PESTICIDE INCLUSION COMPLEXES, CO[…] COMPLEXES AND THE USE THEREOF AS PESTICIDES” (priority 2012, dated 2013)
